Assay results published in patent US20220281848A1, “PYRAZOLE-SUBSTITUTED PYRROLIDINONES AS HERBICIDES” (FMC Corporation, priority 2019, published 2022).

System: plants
Assay: Test D pre-emergence, other plants of Tables D1 and D3
Format: in vivo
Settings: for damage to plant, ALOMY / damage to plant, AVEFA / damage to plant, BEAVA / damage to plant, BROTE / damage to plant, BRSNN / damage to plant, CHEAL / damage to plant, GALAP / damage to plant, HORVW / damage to plant, KCHSC / damage to plant, LOLPE / damage to plant, POAAN / damage to plant, POLCO / damage to plant, SINAR / damage to plant, STEME / damage to plant, VERPE: pre-emergence, 100=total damage, 0=no damage
Method in brief: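 Damage was rated visually from 0 (none) to 100 (total), at 20 DAA for pre-emergence and 15 d for post-emergence. Plants grew from safener-treated seed in a glasshouse at 24/18° C. or 20/16° C. day/night, 65% humidity, watered twice daily.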

CN1CC(c2cc(C(F)(F)F)n(C)n2)C(C(=O)Nc2ccccc2F)C1=O (racemic) [Compound 9]
damage to plant (100=total damage to plant; 0=no damage to plant), SORVU (SORVU, preemergent, rate 500, 20 DAA): 0
damage to plant, ALOMY (rate 15, 20 DAA): 0
damage to plant, AVEFA (rate 15, 20 DAA): 0
damage to plant, BEAVA (rate 15, 20 DAA): 0
damage to plant, BROTE (rate 15, 20 DAA): 0
damage to plant, BRSNN (rate 15, 20 DAA): 0
damage to plant, CHEAL (rate 15, 20 DAA): 0
damage to plant, GALAP (rate 15, 20 DAA): 0
damage to plant, HORVW (rate 15, 20 DAA): 0
damage to plant, KCHSC (rate 15, 20 DAA): 0
damage to plant, LOLPE (rate 15, 20 DAA): 0
damage to plant, POAAN (rate 15, 20 DAA): 0
damage to plant, POLCO (rate 15, 20 DAA): 0
damage to plant, SINAR (rate 15, 20 DAA): 0
damage to plant, STEME (rate 15, 20 DAA): 0
damage to plant, VERPE (rate 15, 20 DAA): 0
damage to plant, ALOMY (rate 30, 20 DAA): 0
damage to plant, AVEFA (rate 30, 20 DAA): 0
damage to plant, BEAVA (rate 30, 20 DAA): 0
damage to plant, BROTE (rate 30, 20 DAA): 0
damage to plant, BRSNN (rate 30, 20 DAA): 0
damage to plant, CHEAL (rate 30, 20 DAA): 0
damage to plant, GALAP (rate 30, 20 DAA): 0
damage to plant, HORVW (rate 30, 20 DAA): 0
damage to plant, KCHSC (rate 30, 20 DAA): 0
damage to plant, LOLPE (rate 30, 20 DAA): 0
damage to plant, POAAN (rate 30, 20 DAA): 0
damage to plant, POLCO (rate 30, 20 DAA): 0
damage to plant, SINAR (rate 30, 20 DAA): 0
damage to plant, STEME (rate 30, 20 DAA): 0
damage to plant, VERPE (rate 30, 20 DAA): 0
damage to plant, ALOMY (rate 60, 20 DAA): 0
damage to plant, AVEFA (rate 60, 20 DAA): 0
damage to plant, BEAVA (rate 60, 20 DAA): 0
damage to plant, BROTE (rate 60, 20 DAA): 0
damage to plant, BRSNN (rate 60, 20 DAA): 0
damage to plant, CHEAL (rate 60, 20 DAA): 0
damage to plant, GALAP (rate 60, 20 DAA): 0
damage to plant, HORVW (rate 60, 20 DAA): 0
damage to plant, KCHSC (rate 60, 20 DAA): 0
damage to plant, LOLPE (rate 60, 20 DAA): 0
damage to plant, POAAN (rate 60, 20 DAA): 0
damage to plant, POLCO (rate 60, 20 DAA): 0
damage to plant, SINAR (rate 60, 20 DAA): 0
damage to plant, STEME (rate 60, 20 DAA): 0
damage to plant, VERPE (rate 60, 20 DAA): 0
damage to plant, ALOMY (rate 130, 20 DAA): 0
damage to plant, AVEFA (rate 130, 20 DAA): 0
damage to plant, BEAVA (rate 130, 20 DAA): 0
damage to plant, BROTE (rate 130, 20 DAA): 0
damage to plant, BRSNN (rate 130, 20 DAA): 0
damage to plant, CHEAL (rate 130, 20 DAA): 0
damage to plant, GALAP (rate 130, 20 DAA): 0
damage to plant, HORVW (rate 130, 20 DAA): 0
damage to plant, KCHSC (rate 130, 20 DAA): 0
damage to plant, LOLPE (rate 130, 20 DAA): 0
damage to plant, POAAN (rate 130, 20 DAA): 10
damage to plant, POLCO (rate 130, 20 DAA): 0
damage to plant, SINAR (rate 130, 20 DAA): 0
damage to plant, STEME (rate 130, 20 DAA): 0
damage to plant, VERPE (rate 130, 20 DAA): 0
damage to plant, ALOMY (rate 250, 20 DAA): 0
damage to plant, AVEFA (rate 250, 20 DAA): 10
damage to plant, BEAVA (rate 250, 20 DAA): 0
damage to plant, BROTE (rate 250, 20 DAA): 0
damage to plant, BRSNN (rate 250, 20 DAA): 0
damage to plant, CHEAL (rate 250, 20 DAA): 0
damage to plant, GALAP (rate 250, 20 DAA): 0
damage to plant, HORVW (rate 250, 20 DAA): 0
damage to plant, KCHSC (rate 250, 20 DAA): 0
damage to plant, LOLPE (rate 250, 20 DAA): 30
damage to plant, POAAN (rate 250, 20 DAA): 10
damage to plant, POLCO (rate 250, 20 DAA): 0
damage to plant, SINAR (rate 250, 20 DAA): 0
damage to plant, STEME (rate 250, 20 DAA): 10
damage to plant, VERPE (rate 250, 20 DAA): 0
damage to plant, ALOMY (rate 500, 20 DAA): 0
damage to plant, AVEFA (rate 500, 20 DAA): 20
damage to plant, BEAVA (rate 500, 20 DAA): 0
damage to plant, BROTE (rate 500, 20 DAA): 0
damage to plant, BRSNN (rate 500, 20 DAA): 0
damage to plant, CHEAL (rate 500, 20 DAA): 0
damage to plant, GALAP (rate 500, 20 DAA): 10
damage to plant, HORVW (rate 500, 20 DAA): 0
damage to plant, KCHSC (rate 500, 20 DAA): 0
damage to plant, LOLPE (rate 500, 20 DAA): 20
damage to plant, POAAN (rate 500, 20 DAA): 50
damage to plant, POLCO (rate 500, 20 DAA): 0
damage to plant, SINAR (rate 500, 20 DAA): 0
damage to plant, STEME (rate 500, 20 DAA): 80
damage to plant, VERPE (rate 500, 20 DAA): 0
